{"source": "patent US10196701B2", "about": "“Hepatitis B virus capsid assembly” (The Penn State Research Foundation, priority 2015, dated 2019)", "molecules": {"B1": {"name": "CIAP: calf intestinal alkaline phosphatase, exogenous phosphatase (New England Biolabs) (protein, UniProt P19111 20-506, looked up)", "Intestinal-type alkaline …": "LVPVEEEDPAFWNRQAAQALDVAKKLQPIQTAAKNVILFLGDGMGVPTVTATRILKGQMNGKLGPETPLAMDQFPYVALSKTYNVDRQVPDSAGTATAYLCGVKGNYRTIGVSAAARYNQCKTTRGNEVTSVMNRAKKAGKSVGVVTTTRVQHASPAGAYAHTVNRNWYSDADLPADAQMNGCQDIAAQLVNNMDIDVILGGGRKYMFPVGTPDPEYPDDASVNGVRKRKQNLVQAWQAKHQGAQYVWNRTALLQAADDSSVTHLMGLFEPADMKYNVQQDHTKDPTLQEMTEVALRVVSRNPRGFYLFVEGGRIDHGHHDDKAYMALTEAGMFDNAIAKANELTSELDTLILVTADHSHVFSFGGYTLRGTSIFGLAPSKALDSKSYTSILYGNGPGYALGGGSRPDVNDSTSEDPSYQQQAAVPQASETHGGEDVAVFARGPQAHLVHGVEEETFVAHIMAFAGCVEPYTDCNLPAPTTATSIPD"}, "B2": {"name": "RNase: RNase A, 100 μg/ml final concentration (protein, UniProt P61823 27-150, looked up)", "Ribonuclease pancreatic": "KETAAAKFERQHMDSSTSAASSSNYCNQMMKSRNLTKDRCKPVNTFVHESLADVQAVCSQKNVACKNGQTNCYQSYSTMSITDCRETGSSKYPNCAYKTTQANKHIIVACEGNPYVPVHFDASV"}}, "key": {"[1]": {"test_system": "HBc (HBV capsid assembly)", "assay": "In vitro capsid assembly in RRL, agarose gel electrophoresis", "assay_type": "biochemical, Hepatitis B virus", "experimental": "(§1) The TNT Coupled Rabbit Reticulocyte Lysate (RRL) in vitro translation system (Promega) was used to express the HBc proteins as recommended by the manufacturer's protocol. In vitro translated proteins were labeled by ^35S methionine. The translation reaction mix contained ca. 125 mM KCI and 2.5 mM Mg^++ (Promega).\n(§2) Unless specifically indicated otherwise, the general assembly reactions included 1 to 3 microL of translation products per 10 microL final reaction volume in 1× buffer 3 (100 mM NaCl, 50 mM Tris-HCl, 10 mM MgCl2, 1 mM DTT, pH 7.9; New England Biolabs) supplemented with 1×EDTA-free protease inhibitor cocktail (Roche) and 0.8 U/μl RNasin Plus RNase Inhibitor (Promega). The reactions were incubated for 16 hrs at 37° C. unless indicated otherwise. Where indicated, additional enzymatic manipulations were performed using the same reaction buffer as above. (1) Exogenous phosphatase treatment. One unit of calf intestinal alkaline phosphatase (CIAP; New England Biolabs) per microliter of the final reaction volume was added at the end of translation and incubated for 16 hours at 37° C. (2) Kinase inhibitor treatment. […] The final concentration of DMSO in all reactions was 1% (i.e., kinase inhibitor stocks were always diluted 100-fold into the translation or assembly reactions). (3) Phosphatase inhibitor treatment. A cocktail of non-specific phosphatase inhibitors (10 mM NaF, 50 mM β-glycerophosphate, 10 mM sodium pyrophosphate, and 2 mM sodium orthovanadate; all final concentrations) were added at the end of the translation and incubated for 16 hours at 37° C. Alternatively, okadaic acid (Sigma) was added at the end of the translation at the indicated concentrations and incubated for 16 hours at 37° C. (4) RNase A digestion. RNase A (100 μg/ml final concentration) was added at the end of the translation and incubated for 16 hour at 37° C., or added at the end of the 16 hr assembly reaction and incubated for another one hr.\n(§3) ^35S-labeled translation reactions were resolved by 1% agarose gel electrophoresis (100 V for ˜3 hours), using 6×DNA Loading Buffer Blue (New England Biolabs). The gels were then soaked in 10×SSC (1.5 M NaCl, 150 mM sodium citrate, pH 7.0) for approximately 30 minutes and transferred overnight to nitrocellulose membrane by capillary transfer. The next day the membranes were UV cross-linked and dried in a vacuum oven for 2 hours. The translation products were analyzed by autoradiography and Western blotting with the rabbit polyclonal anti-HBcAg (Dako) or mouse monoclonal anti-woodchuck hepatitis virus core protein (Ning X, et al. (2011) PLoS pathogens 7: e1002255)."}, "PP1": {"test_system": "PP1", "settings": "cellular serine/threonine phosphatase PP1; Cohen P, et al. (1990); cited from earlier work"}, "HBc CTD": {"test_system": "HBc CTD", "assay": "Mobility of unassembled HBc on agarose gel (CTD phosphorylation state) and HBc protein levels in RRL", "assay_type": "biochemical, Hepatitis B virus", "settings": "for mobility upshift on the agarose gel of WT HBc: kinase inhibitors added at beginning of translation, ERKI 310 μM, Bisindo 40 μM; for mobility upshift on the agarose gel of WT HBc / C149 mobility on the agarose gel: Rosc 250 μM; for C149 mobility on the agarose gel: kinase inhibitors", "experimental": "as §1, §2, §3\n^35S-labeled translation reactions were resolved by SDS-PAGE on 15% or 12.5% polyacrylamide gels. The resolved proteins were transferred to PVDF membrane and detected by autoradiography or Western blotting as above."}, "PP2A": {"test_system": "PP2A", "settings": "cellular serine/threonine phosphatase PP2A; Cohen P, et al. (1990); cited from earlier work"}, "[2]": {"settings": "phosphatase inhibitor added during assembly incubation, OA 50 nM"}, "[3]": {"settings": "kinase inhibitors, Rosc 250 μM, CDK2I 250 μM"}, "[4]": {"settings": "CIAP treatment following translation"}, "[5]": {"settings": "RNase pretreatment before assembly"}, "[6]": {"settings": "RNase treatment before assembly"}}, "data": [{"molecule": "C=C1[C@@H](O)[C@@H]2O[C@]3(CC[C@H](/C=C/[C@@H](C)[C@@H]4CC(C)=C[C@@]5(O[C@H](C[C@@](C)(O)C(=O)O)CC[C@H]5O)O4)O3)CC[C@H]2O[C@@H]1[C@@H](O)C[C@H](C)[C@H]1O[C@@]2(CCCCO2)CC[C@H]1C", "note": "[OA, okadaic acid]", "values": [{"measurement": "capsid assembly by 3A", "setting": "[1]; [2]", "value": "not inhibited"}, {"measurement": "capsid assembly by 3E", "setting": "[1]; [2]", "value": "prevented assembly"}, {"measurement": "IC50", "setting": "PP1", "value": "15 to 20", "unit": "nM"}, {"measurement": "mobility upshift of the WT HBc on the agarose gel", "setting": "HBc CTD; phosphatase inhibitor added during overnight 37° C. incubation following translation, OA 50 nM", "value": "completely blocked"}, {"measurement": "OA concentration that could significantly affect the dephosphorylation-induced mobility upshift of the WT HBc", "setting": "HBc CTD; titration of OA, overnight incubation at 37° C.", "value": 4, "unit": "nM"}, {"measurement": "IC50", "setting": "PP2A", "value": "~0.1", "unit": "nM"}]}, {"molecule": "COc1ccc(CNc2nc(N(CCO)CCO)nc3c2ncn3C(C)C)cc1", "note": "[CDK2 inhibitor, CDK2 inhibitor III]", "values": [{"measurement": "7E assembly", "setting": "[1]; [3]", "value": "little effect"}, {"measurement": "levels of the WT and mutant HBc proteins", "setting": "HBc CTD; SDS-PAGE, CDK2I 250 μM", "value": "increase"}, {"measurement": "mobility upshift on the agarose gel of WT HBc", "setting": "HBc CTD; CDK2I 250 μM", "value": "induced a mobility upshift"}, {"measurement": "C149 mobility on the agarose gel", "setting": "HBc CTD; CDK2I 250 μM", "value": "no effect"}]}, {"molecule": "CN(C)CCCn1cc(C2=C(c3c[nH]c4ccccc34)C(=O)NC2=O)c2ccccc21", "note": "[PKC inhibitor, Bisindolymaleimide I]", "values": [{"measurement": "mobility upshift on the agarose gel of WT HBc", "setting": "HBc CTD; CDK2I 250 μM", "value": "no effect"}]}, {"molecule": "CC[C@H](CO)Nc1nc(NCc2ccccc2)c2ncn(C(C)C)c2n1", "note": "[roscovitine, Roscovitine]", "values": [{"measurement": "7E assembly", "setting": "[1]; [3]", "value": "little effect"}, {"measurement": "C149 mobility on the agarose gel", "setting": "HBc CTD; CDK2I 250 μM", "value": "no effect"}]}, {"molecule": "Nc1[nH]nc2nnc(-c3c(-c4ccccc4)nn4ccccc34)cc12", "note": "[ERK inhibitor, Erk inhibitor II]", "values": [{"measurement": "mobility upshift on the agarose gel of WT HBc", "setting": "HBc CTD; CDK2I 250 μM", "value": "no effect"}]}, {"molecule": "B1", "values": [{"measurement": "assembly of the WT HBc", "setting": "[1]; CIAP 1 unit per microliter, 16 hours at 37° C. following translation", "value": "induced the assembly"}, {"measurement": "assembly of the 3A mutant", "setting": "[1]; [4]", "value": "did not have a significant effect"}, {"measurement": "assembly of the 3E mutant", "setting": "[1]; [4]", "value": "did not have a significant effect"}, {"measurement": "mobility of the C149 truncation mutant", "setting": "HBc CTD; [4]", "value": "did not affect the mobility"}]}, {"molecule": "B2", "values": [{"measurement": "assembly of the 3A mutant", "setting": "[1]; [5]", "value": "no effect"}, {"measurement": "assembly of the 3E mutant", "setting": "[1]; [5]", "value": "prevented assembly"}, {"measurement": "WT HBc capsid assembly", "setting": "[1]; RNase treatment before CIAP treatment, RNase A 100 μg/ml", "value": "prevented capsid assembly"}, {"measurement": "7A assembly", "setting": "[1]; [6]", "value": "abolished"}, {"measurement": "7E assembly", "setting": "[1]; [6]", "value": "no effect"}, {"measurement": "assembled capsids (WT and mutants)", "setting": "[1]; RNase treatment following the completion of capsid assembly", "value": "little effect"}]}]}
